Assay results published in US20170334899A1, “AMINO-SUBSTITUTED ISOTHIAZOLES” (Bayer Pharma Aktiengesellschaft, priority 2014, published 2017).

What was measured:
CDK2/CycE = molecular target: T1, CDK2/CycE (Homo sapiens, UniProt P24941); experiment: CDK2/CycE kinase assay (TR-FRET); format: biochemical; settings: avg, read-out: CDK2 avg (IC50 [mol/l])
T1 construct: GST; purchased ProQinase GmbH (Freiburg, Germany); host or cells: insect cells (Sf9)
Procedure, shortened: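 Read-out is a TR-FRET 665/620 nm emission ratio from EDTA-stopped reactions detected with anti-pRB(pSer807/pSer811), Eu-labelled anti-mouse IgG and streptavidin-XL665, scaled between no-enzyme and uninhibited wells. Reaction: Sf9-expressed GST-CDK2/GST-CycE, 15 min compound preincubation, 10 μM ATP, 0.75 μM biotin-peptide, 25 min, 22° C., pH 8.0 Tris buffer.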

[1] = molecular target: T2, catalytic domain of human Bub1 (amino acids 704-1085) (Homo sapiens, UniProt O43683); experiment: Bub1 kinase assay (TR-FRET); format: biochemical; settings: 10 μM ATP, avg, read-out: Bub1 avg (IC50 [mol/l])
T2 construct: catalytic domain of human Bub1 (amino acids 704-1085); His6 (N); made in house; host or cells: insect cells (Hi5)
Procedure, shortened: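 Readout is the 665/620 nm TR-FRET ratio from anti-phosphoserine antibody, Eu-labelled anti-mouse IgG and streptavidin-XL665, scaled between no-enzyme and uninhibited controls. Reaction: 1 μM biotinylated peptide, 10 μM ATP, 60 min, 22 °C, after 15 min compound preincubation with His6-Bub1 (704-1085, insect-expressed, ~200 ng/ml).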

T2 sequence (O43683 704-1085): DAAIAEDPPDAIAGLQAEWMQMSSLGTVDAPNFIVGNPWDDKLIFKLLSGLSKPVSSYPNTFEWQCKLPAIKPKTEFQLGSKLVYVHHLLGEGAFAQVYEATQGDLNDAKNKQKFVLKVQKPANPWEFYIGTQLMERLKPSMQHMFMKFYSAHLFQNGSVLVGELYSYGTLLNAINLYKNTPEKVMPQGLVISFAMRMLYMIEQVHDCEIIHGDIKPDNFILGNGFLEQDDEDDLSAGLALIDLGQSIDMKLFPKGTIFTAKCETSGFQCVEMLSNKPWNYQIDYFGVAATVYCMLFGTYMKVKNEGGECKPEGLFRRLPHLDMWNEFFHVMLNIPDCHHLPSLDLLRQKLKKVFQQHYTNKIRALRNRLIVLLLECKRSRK

Row | IC50 (CDK2/CycE) [µM] | IC50 [1] [µM] | Compound
1 | ≥ 20 | ≥ 20 | Cc1nsc(Nc2cc(C#N)ccn2)c1C(=O)Nc1ccc(OC2CCN(C(=O)OC(C)(C)C)CC2)nc1 [Example 23, tert-Butyl 4-({5-[({5-[(4-cyanopyridin-2-yl)amino]-3-methyl-1,2-thiazol-4-yl}-carbonyl)amino]pyridin-2-yl}oxy)piperidine-1-carboxylate]
2 | > 20 | > 20 | Cc1nsc(Nc2cnc(C(F)(F)F)cn2)c1C(=O)Nc1ccc(N(C)C)c(OCCCN(C)CC(F)(F)F)c1 [Example 299, N-[4-(dimethylamino)-3-{3-[methyl(2,2,2-trifluoroethyl)amino]propoxy}phenyl]-3-methyl-5-{[5-(trifluoromethyl)pyrazin-2-yl]amino}-1,2-thiazole-4-carboxamide]
3 | ≥ 20 | ≥ 20 | Cc1nsc(Nc2cnc(C(F)(F)F)cn2)c1C(=O)Nc1ccc(OCCNCC(F)(F)F)nc1 [Example 322, 3-methyl-N-(6-{2-[(2,2,2-trifluoroethyl)amino]ethoxy}pyridin-3-yl)-5-{[5-(trifluoromethyl)pyrazin-2-yl]amino}-1,2-thiazole-4-carboxamide]
4 | > 20 | > 20 | Cc1nsc(Nc2cnc(C(F)(F)F)cn2)c1C(=O)Nc1ccc(F)c(OC2CCN(CC(F)F)CC2)c1 [Example 265, N-(3-{[1-(2,2-difluoroethyl)piperidin-4-yl]oxy}-4-fluorophenyl)-3-methyl-5-{[5-(trifluoromethyl)pyrazin-2-yl]amino}-1,2-thiazole-4-carboxamide]
5 | ≥ 20 | ≥ 20 | Cc1nsc(Nc2cnc(C(F)(F)F)cn2)c1C(=O)Nc1ccc(F)c(OCC2CCN(CC(F)(F)F)CC2)c1 [Example 310, N-(4-fluoro-3-{[1-(2,2,2-trifluoroethyl)piperidin-4-yl]methoxy}phenyl)-3-methyl-5-{[5-(trifluoromethyl)pyrazin-2-yl]amino}-1,2-thiazole-4-carboxamide]
6 | > 20 | > 20 | Cc1nsc(Nc2cnc(C(F)(F)F)cn2)c1C(=O)Nc1ccc(C(=O)N2CCN(CC(F)(F)F)CC2)cc1 [Example 260, 3-methyl-N-(4-{[4-(2,2,2-trifluoroethyl)piperazin-1-yl]carbonyl}phenyl)-5-{[5-(trifluoromethyl)pyrazin-2-yl]amino}-1,2-thiazole-4-carboxamide]
7 | 14 | > 20 | Cc1nsc(Nc2cnc3ccccc3n2)c1C(=O)Nc1cccc(NS(=O)(=O)C2CCCN(C(=O)OCc3ccccc3)C2)c1 (centres unmarked) [Example 291, benzyl 3-{[3-({[3-methyl-5-(quinoxalin-2-ylamino)-1,2-thiazol-4-yl]carbonyl}amino)phenyl]sulfamoyl} piperidine-1-carboxylate]
8 | ≥ 20 | ≥ 20 | Cc1nsc(Nc2cc(C#N)ccn2)c1C(=O)Nc1ccc(OC2CCN(CC(F)(F)F)CC2)nc1 [Example 25, 5-[(4-Cyanopyridin-2-yl)amino]-3-methyl-N-(6-{[1-(2,2,2-trifluoroethyl)piperidin-4-yl]oxy}pyridin-3-yl)-1,2-thiazole-4-carboxamide]
9 | > 20 | > 20 | Cc1nsc(Nc2cnc(C(F)(F)F)cn2)c1C(=O)Nc1ccc(OC2CCN(CCF)C2)nc1 (centres unmarked) [Example 295, N-(6-{[1-(2-fluoroethyl)pyrrolidin-3-yl]oxy}pyridin-3-yl)-3-methyl-5-{[5-(trifluoromethyl)pyrazin-2-yl]amino}-1,2-thiazole-4-carboxamide]
10 | > 20 | > 20 | Cc1nsc(Nc2cnc(C(F)(F)F)cn2)c1C(=O)Nc1ccc(OCCCNCC(F)F)nc1 [Example 293, N-(6-{3-[(2,2-difluoroethyl)amino]propoxy}pyridin-3-yl)-3-methyl-5-{[5-(trifluoromethyl)pyrazin-2-yl]amino}-1,2-thiazole-4-carboxamide]
11 | ≥ 20 | ≥ 20 | Cc1nsc(Nc2cnc(C(F)(F)F)cn2)c1C(=O)Nc1ccc(F)c(OCC2CCN(CC(F)F)C2)c1 (centres unmarked) [Example 316, N-(3-{[1-(2,2-difluoroethyl)pyrrolidin-3-yl]methoxy}-4-fluorophenyl)-3-methyl-5-{[5-(trifluoromethyl)pyrazin-2-yl]amino}-1,2-thiazole-4-carboxamide]
12 | > 20 | > 20 | Cc1nsc(Nc2cncc(C(F)(F)F)n2)c1C(=O)Nc1ccc(C(=O)N2CCN(CC(F)F)CC2)cc1 [Example 273, N-(4-{[4-(2,2-difluoroethyl)piperazin-1-yl]carbonyl}phenyl)-3-methyl-5-{[6-(trifluoromethyl)pyrazin-2-yl]amino}-1,2-thiazole-4-carboxamide]
13 | > 20 | > 20 | Cc1nsc(Nc2cncc(C(F)(F)F)n2)c1C(=O)Nc1ccc(OCCO)nc1 [Example 276, N-[6-(2-hydroxyethoxy)pyridin-3-yl]-3-methyl-5-{[6-(trifluoromethyl)pyrazin-2-yl]amino}-1,2-thiazole-4-carboxamide]
14 | > 20 | > 20 | Cc1nsc(Nc2cnc(C(F)(F)F)cn2)c1C(=O)Nc1ccc(OC2CCN(CCC(F)(F)F)C2)nc1 (centres unmarked) [Example 298, 3-methyl-5-{[5-(trifluoromethyl)pyrazin-2-yl]amino}-N-(6-{[1-(3,3,3-trifluoropropyl)pyrrolidin-3-yl]oxy}pyridin-3-yl)-1,2-thiazole-4-carboxamide]
15 | > 20 | > 20 | Cc1nsc(Nc2cc(C#N)ccn2)c1C(=O)Nc1ccc(OC2CCN(CC(F)F)CC2)nc1 [Example 263, 5-[(4-cyanopyridin-2-yl)amino]-N-(6-{[1-(2,2-difluoroethyl)piperidin-4-yl]oxy}pyridin-3-yl)-3-methyl-1,2-thiazole-4-carboxamide]
16 | > 20 | > 20 | COC(=O)CCc1cccc(NC(=O)c2c(C)nsc2Nc2cnc3ccccc3n2)c1 [Example 257, methyl 3-[3-({[3-methyl-5-(quinoxalin-2-ylamino)-1,2-thiazol-4-yl]carbonyl}amino)phenyl]propanoate]
17 | 5.4 | > 20 | Cc1nsc(Nc2cncc(C(F)(F)F)n2)c1C(=O)Nc1ccc(C(=O)N2CCN(CCF)CC2)cc1 [Example 274, N-(4-{[4-(2-fluoroethyl)piperazin-1-yl]carbonyl}phenyl)-3-methyl-5-{[6-(trifluoromethyl)pyrazin-2-yl]amino}-1,2-thiazole-4-carboxamide]
18 | ≥ 20 | ≥ 20 | Cc1nsc(Nc2ccc(C#N)cn2)c1C(=O)Nc1ccc(OC2CCN(C(=O)OC(C)(C)C)CC2)nc1 [Example 27, tert-Butyl 4-({5-[({5-[(5-cyanopyridin-2-yl)amino]-3-methyl-1,2-thiazol-4-yl}-carbonyl)amino]pyridin-2-yl}oxy)piperidine-1-carboxylate]
19 | ≥ 20 | ≥ 20 | Cc1nsc(Nc2cnc(C(F)(F)F)cn2)c1C(=O)Nc1ccc(OC2CCN(C(CF)CF)C2)nc1 (centres unmarked) [Example 313, N-(6-{[1-(1,3-difluoropropan-2-yl)pyrrolidin-3-yl]oxy}pyridin-3-yl)-3-methyl-5-{[5-(trifluoromethyl)pyrazin-2-yl]amino}-1,2-thiazole-4-carboxamide]
20 | > 20 | > 20 | Cc1nsc(Nc2cnc(C(F)(F)F)cn2)c1C(=O)Nc1ccc(F)c(OC2CCN(CC(F)(F)F)CC2)c1 [Example 264, N-(4-fluoro-3-{[1-(2,2,2-trifluoroethyl)piperidin-4-yl]oxy}phenyl)-3-methyl-5-{[5-(trifluoromethyl)pyrazin-2-yl]amino}-1,2-thiazole-4-carboxamide]
21 | > 20 | > 20 | Cc1nsc(Nc2cnc(C(F)(F)F)cn2)c1C(=O)Nc1ccc(OC2CCN(CC(F)(F)F)C2)nc1 (centres unmarked) [Example 297, 3-methyl-N-(6-{[1-(2,2,2-trifluoroethyl)pyrrolidin-3-yl]oxy}pyridin-3-yl)-5-{[5-(trifluoromethyl)pyrazin-2-yl]amino}-1,2-thiazole-4-carboxamide]
22 | ≥ 20 | ≥ 20 | Cc1nsc(Nc2cnc(C(F)(F)F)cn2)c1C(=O)Nc1ccc(F)c(OCCCNCCC(F)(F)F)c1 [Example 307, N-(4-fluoro-3-{3-[(3,3,3-trifluoropropyl)amino]propoxy}phenyl)-3-methyl-5-{[5-(trifluoromethyl)pyrazin-2-yl]amino}-1,2-thiazole-4-carboxamide]
23 | ≥ 20 | 14 | Cc1nsc(Nc2cnc(C(F)(F)F)cn2)c1C(=O)Nc1ccc(OCCNCCF)nc1 [Example 321, N-(6-{2-[(2-fluoroethyl)amino]ethoxy}pyridin-3-yl)-3-methyl-5-{[5-(trifluoromethyl)pyrazin-2-yl]amino}-1,2-thiazole-4-carboxamide]
24 | > 20 | > 20 | Cc1nsc(Nc2cnc(C(F)(F)F)cn2)c1C(=O)Nc1ccc(C(=O)N2CCN(C)CC2)cc1 [Example 262, 3-methyl-N-{4-[(4-methylpiperazin-1 yl)carbonyl]phenyl}-5-{[5-(trifluoromethyl)pyrazin-2-yl]amino}-1,2-thiazole-4-carboxamide]
25 | ≥ 20 | 19 | Cc1nsc(Nc2cnc(C(F)(F)F)cn2)c1C(=O)Nc1ccc(OCCNCC(F)F)nc1 [Example 305, N-(6-{2-[(2,2-difluoroethyl)amino]ethoxy}pyridin-3-yl)-3-methyl-5-{[5-(trifluoromethyl)pyrazin-2-yl]amino}-1,2-thiazole-4-carboxamide]
